Measurements reported in the NIST ThermoML archive (doi:10.1021/je700152c).

Assay: molar heat capacity at saturation pressure; xn = mol fraction of the nth substance listed

CCCCn1cc[n+](C)c1.Cc1ccc(S(=O)(=O)[O-])cc1 [1-butyl-3-methylimidazolium tosylate] + O
molar heat capacity [J/K/mol]
Conditions | Crystal | Metastable crystal
78.15 K, x1 = 0.83 | 130.09 | –
78.19 K, x1 = 0.83 | – | 130.61
80.13 K, x1 = 0.83 | 132.44 | –
80.17 K, x1 = 0.83 | – | 132.96
81.97 K, x1 = 0.83 | 134.26 | –
82.01 K, x1 = 0.83 | – | 135.05
83.83 K, x1 = 0.83 | 136.35 | –
83.86 K, x1 = 0.83 | – | 137.39
85.69 K, x1 = 0.83 | 138.43 | –
85.72 K, x1 = 0.83 | – | 139.48
87.56 K, x1 = 0.83 | 140.78 | –
87.59 K, x1 = 0.83 | – | 141.82
89.44 K, x1 = 0.83 | 142.87 | –
89.46 K, x1 = 0.83 | – | 144.17
91.33 K, x1 = 0.83 | 144.95 | –
91.34 K, x1 = 0.83 | – | 146.26
93.22 K, x1 = 0.83 | 147.04 | –
93.23 K, x1 = 0.83 | – | 148.6
95.13 K, x1 = 0.83 | 149.12 | 150.69
97.03 K, x1 = 0.83 | – | 153.03
97.04 K, x1 = 0.83 | 150.95 | –
98.94 K, x1 = 0.83 | – | 155.38
98.95 K, x1 = 0.83 | 153.03 | –
100.85 K, x1 = 0.83 | – | 157.47
100.88 K, x1 = 0.83 | 155.12 | –
102.77 K, x1 = 0.83 | – | 159.81
102.8 K, x1 = 0.83 | 156.94 | –
104.69 K, x1 = 0.83 | – | 161.9
104.74 K, x1 = 0.83 | 159.03 | –
106.61 K, x1 = 0.83 | – | 164.24
106.68 K, x1 = 0.83 | 161.12 | –
108.55 K, x1 = 0.83 | – | 166.33
108.63 K, x1 = 0.83 | 163.2 | –
110.48 K, x1 = 0.83 | – | 168.68
110.57 K, x1 = 0.83 | 165.03 | –
112.41 K, x1 = 0.83 | – | 170.76
112.53 K, x1 = 0.83 | 167.11 | –
114.35 K, x1 = 0.83 | – | 173.11
114.48 K, x1 = 0.83 | 169.2 | –
116.29 K, x1 = 0.83 | – | 175.19
116.44 K, x1 = 0.83 | 171.02 | –
118.23 K, x1 = 0.83 | – | 177.54
118.4 K, x1 = 0.83 | 173.11 | –
120.18 K, x1 = 0.83 | – | 179.89
120.37 K, x1 = 0.83 | 175.19 | –
122.12 K, x1 = 0.83 | – | 182.23
122.34 K, x1 = 0.83 | 177.02 | –
124.07 K, x1 = 0.83 | – | 184.32
124.3 K, x1 = 0.83 | 179.1 | –
126.01 K, x1 = 0.83 | – | 186.66
126.27 K, x1 = 0.83 | 181.19 | –
127.96 K, x1 = 0.83 | – | 189.01
128.25 K, x1 = 0.83 | 183.28 | –
129.91 K, x1 = 0.83 | – | 191.36
130.22 K, x1 = 0.83 | 185.36 | –
131.86 K, x1 = 0.83 | – | 193.7
132.19 K, x1 = 0.83 | 187.45 | –
133.81 K, x1 = 0.83 | – | 196.05
134.16 K, x1 = 0.83 | 189.79 | –
134.57 K, x1 = 0.3 | 80.15 | –
135.75 K, x1 = 0.83 | – | 198.4
136.14 K, x1 = 0.83 | 192.14 | –
137.46 K, x1 = 0.3 | 81.31 | –
137.7 K, x1 = 0.83 | – | 201
138.11 K, x1 = 0.83 | 194.75 | –
139.65 K, x1 = 0.83 | – | 203.09
140.08 K, x1 = 0.83 | 197.88 | –
140.19 K, x1 = 0.3 | 82.47 | –
141.59 K, x1 = 0.83 | – | 205.7
142.04 K, x1 = 0.83 | 201.53 | –
142.92 K, x1 = 0.3 | 83.64 | –
143.53 K, x1 = 0.83 | – | 208.04
143.99 K, x1 = 0.83 | 206.74 | –
145.47 K, x1 = 0.83 | – | 210.65
145.65 K, x1 = 0.3 | 84.8 | –
145.93 K, x1 = 0.83 | 214.56 | –
147.41 K, x1 = 0.83 | – | 213
147.86 K, x1 = 0.83 | 217.43 | –
148.38 K, x1 = 0.3 | 85.96 | –
149.35 K, x1 = 0.83 | – | 215.34
149.8 K, x1 = 0.83 | 211.69 | –
151.11 K, x1 = 0.3 | 87.13 | –
151.28 K, x1 = 0.83 | – | 217.95
151.76 K, x1 = 0.83 | 207.26 | –
153.22 K, x1 = 0.83 | – | 220.3
153.74 K, x1 = 0.83 | 206.22 | –
153.84 K, x1 = 0.3 | 88.29 | –
155.15 K, x1 = 0.83 | – | 222.64
155.72 K, x1 = 0.83 | 206.74 | –
156.57 K, x1 = 0.3 | 89.45 | –
157.08 K, x1 = 0.83 | – | 224.99
157.71 K, x1 = 0.83 | 207.78 | –
159.01 K, x1 = 0.83 | – | 227.6
159.29 K, x1 = 0.3 | 90.61 | –
159.7 K, x1 = 0.83 | 209.09 | –
160.94 K, x1 = 0.83 | – | 229.94
161.69 K, x1 = 0.83 | 210.65 | –
161.79 K, x1 = 0.37 | 108.28 | –
162.02 K, x1 = 0.3 | 91.78 | –
162.86 K, x1 = 0.83 | – | 232.29
163.68 K, x1 = 0.83 | 212.47 | –
164.74 K, x1 = 0.3 | 92.94 | –
164.78 K, x1 = 0.83 | – | 234.63
164.91 K, x1 = 0.37 | 109.92 | –
165.67 K, x1 = 0.83 | 214.3 | –
166.7 K, x1 = 0.83 | – | 236.72
167.46 K, x1 = 0.3 | 94.21 | –
167.65 K, x1 = 0.83 | 215.86 | –
167.87 K, x1 = 0.37 | 111.44 | –
168.62 K, x1 = 0.83 | – | 239.07
169.64 K, x1 = 0.83 | 217.69 | –
170.18 K, x1 = 0.3 | 95.37 | –
170.53 K, x1 = 0.83 | – | 240.89
170.82 K, x1 = 0.37 | 112.95 | –
171.63 K, x1 = 0.83 | 219.51 | –
172.45 K, x1 = 0.83 | – | 243.24
172.9 K, x1 = 0.3 | 96.64 | –
173.61 K, x1 = 0.83 | 221.34 | –
173.77 K, x1 = 0.37 | 114.59 | –
174.36 K, x1 = 0.83 | – | 245.32
175.6 K, x1 = 0.83 | 223.42 | –
175.61 K, x1 = 0.3 | 97.91 | –
176.27 K, x1 = 0.83 | – | 247.15
176.72 K, x1 = 0.37 | 116.23 | –
177.58 K, x1 = 0.83 | 224.99 | –
178.18 K, x1 = 0.83 | – | 248.97
178.32 K, x1 = 0.3 | 99.28 | –
179.56 K, x1 = 0.83 | 227.07 | –
179.67 K, x1 = 0.37 | 118.38 | –
180.09 K, x1 = 0.83 | – | 250.8
181.02 K, x1 = 0.3 | 101.4 | –
181.54 K, x1 = 0.83 | 228.9 | –
181.99 K, x1 = 0.83 | – | 252.62
182.6 K, x1 = 0.37 | 121.41 | –
183.52 K, x1 = 0.83 | 230.72 | –
183.7 K, x1 = 0.3 | 104.68 | –
183.9 K, x1 = 0.83 | – | 254.19
185.5 K, x1 = 0.37 | 126.71 | –
185.5 K, x1 = 0.83 | 232.81 | –
185.8 K, x1 = 0.83 | – | 256.01
186.36 K, x1 = 0.3 | 107.53 | –
187.47 K, x1 = 0.83 | 234.9 | –
